Measurements as given in patent US20220324906A1 (Novo Nordisk A/S, priority 2014, published 2022).

What was measured:
eMuLV virus = experiment: Clearance of spiked eMuLV by chromatography with a caprylic acid wash; settings: 30 min
Method: A cell line media containing a recombinant human Fab-fragment was filtered through a 0.22 μm and then spiked with eMuLV virus. The spiked media was applied to a column packed with Capto L media (GE-Healthcare). […] Process temperature was 15-25° C. […] A cell line media containing a recombinant human antibody (IgG1) was filtered through a 0.22 μm filter and spiked with eMuLV virus. The spiked media was loaded on a column packed with Protein A (Mab Select SuRe, Ge Healthcare). […] After pH had stabilised the washing continued for 30 min. After 3 other washings (equilibration buffer, 50 mmol/kg phosphate, 1 mol/kg NaCl and then equilibration buffer), the mAb was eluted from the column with a formate buffer, pH 3.5. […] The process temperature was 15-25° C. A cell line media containing a recombinant human antibody (IgG4) was filtered through a 0.22 μm filter and spiked with eMuLV virus. The spiked media was loaded on a column packed with Protein A (Mab Select SuRe, Ge Healthcare). […] After pH had stabilised the washing continued for 30 min. After 3 other washing (equilibration buffer, 50 mmol/kg phosphate, 1 mol/kg NaCl) and then equilibration buffer), the mAb was eluted from the column with a formate buffer, pH 3.5. […] The process temperature was 15-25° C. A cell line media containing a recombinant human antibody (IgG1) was filtered through a 0.22 μm filter and spiked with eMuLV virus. The spiked media was loaded on a column packed with Protein A (Mab Select SuRe, Ge Healthcare). […] After pH had stabilised the washing continued for 30 min. After 3 other washings (equilibration buffer, 50 mmol/kg phosphate, 1 mol/kg NaCl and then equilibration buffer), the mAb was eluted from the column with a formate buffer, pH 3.5. […] The process temperature was 2-8° C.

MuLV virus = experiment: Inactivation of MuLV with caprylic acid at different concentrations and pH; settings: for Titre of MuLV virus after inactivation with caprylic acid: MuLV content 1.2 × 10^6; for Titre of MuLV after inactivating of MuLV with 60 mM caprylic acid: MuLV content 2.7 × 10^5
Excerpt: The inactivation of MuLV was investigated at different concentrations of caprylic and at different pH (Table 6).

[1] = 60 mM, pH 6.0, free caprylic acid 4.3 mM, 1 minute
[2] = 60 mM, pH 6.0, free caprylic acid 4.3 mM, 5 minutes
[3] = 60 mM, pH 6.0, free caprylic acid 4.3 mM, 10 minutes
[4] = 60 mM, pH 6.0, free caprylic acid 4.3 mM, 30 minutes

## CCCCCCCC(=O)O [caprylic acid]
eMuLV virus; Example 2: IgG1, Protein A, 32 mmol/kg caprylate buffer pH 5.8 (2.9 mM free caprylic acid), 15-25° C.
  LRV: >3.0
eMuLV virus; Example 3: IgG4, Protein A, 32 mmol/kg caprylate buffer pH 5.8 (2.9 mM free caprylic acid), 15-25° C.
  LRV: >2.8
eMuLV virus; Example 4: IgG1, Protein A, 35 mmol/kg caprylate buffer pH 5.7 (3.9 mM free caprylic acid), 2-8° C.
  LRV: >3.0
MuLV virus; 10 mM, pH 5.0, free caprylic acid 4.4 mM, 5 minutes
  Titre of MuLV virus after inactivation with caprylic acid: 0
MuLV virus; 10 mM, pH 5.0, free caprylic acid 4.4 mM, 10 minutes
  Titre of MuLV virus after inactivation with caprylic acid: 0
MuLV virus; 10 mM, pH 5.0, free caprylic acid 4.4 mM, 30 minutes
  Titre of MuLV virus after inactivation with caprylic acid: 0
MuLV virus; 20 mM, pH 5.5, free caprylic acid 3.9 mM, 5 minutes
  Titre of MuLV virus after inactivation with caprylic acid: 0
MuLV virus; 20 mM, pH 5.5, free caprylic acid 3.9 mM, 10 minutes
  Titre of MuLV virus after inactivation with caprylic acid: 0
MuLV virus; 20 mM, pH 5.5, free caprylic acid 3.9 mM, 30 minutes
  Titre of MuLV virus after inactivation with caprylic acid: 0
MuLV virus; 60 mM caprylic acid, pH range 5.9 to 6.3, within 5 minutes
  inactivation of MuLV: more than 5.4 log 10
MuLV virus; 60 mM, pH 5.9, free caprylic acid 5.3 mM, 5 minutes
  Titre of MuLV after inactivating of MuLV with 60 mM caprylic acid: 0
MuLV virus; 60 mM, pH 5.9, free caprylic acid 5.3 mM, 10 minutes
  Titre of MuLV after inactivating of MuLV with 60 mM caprylic acid: 0
MuLV virus; 60 mM, pH 5.9, free caprylic acid 5.3 mM, 30 minutes
  Titre of MuLV after inactivating of MuLV with 60 mM caprylic acid: 0
MuLV virus; [1]
  Titre of MuLV virus after inactivation with caprylic acid: 0
  Titre of MuLV after inactivating of MuLV with 60 mM caprylic acid: 2.5
MuLV virus; [2]
  Titre of MuLV virus after inactivation with caprylic acid: 0
  Titre of MuLV after inactivating of MuLV with 60 mM caprylic acid: 0
MuLV virus; [3]
  Titre of MuLV virus after inactivation with caprylic acid: 0
  Titre of MuLV after inactivating of MuLV with 60 mM caprylic acid: 0
MuLV virus; [4]
  Titre of MuLV virus after inactivation with caprylic acid: 0
  Titre of MuLV after inactivating of MuLV with 60 mM caprylic acid: 0
MuLV virus; 60 mM, pH 6.1, free caprylic acid 3.5 mM, 1 minute
  Titre of MuLV after inactivating of MuLV with 60 mM caprylic acid: 0
MuLV virus; 60 mM, pH 6.1, free caprylic acid 3.5 mM, 5 minutes
  Titre of MuLV after inactivating of MuLV with 60 mM caprylic acid: 0
MuLV virus; 60 mM, pH 6.1, free caprylic acid 3.5 mM, 10 minutes
  Titre of MuLV after inactivating of MuLV with 60 mM caprylic acid: 0
MuLV virus; 60 mM, pH 6.1, free caprylic acid 3.5 mM, 30 minutes
  Titre of MuLV after inactivating of MuLV with 60 mM caprylic acid: 0
MuLV virus; 60 mM, pH 6.2, free caprylic acid 2.8 mM, 5 minutes
  Titre of MuLV after inactivating of MuLV with 60 mM caprylic acid: 0
MuLV virus; 60 mM, pH 6.2, free caprylic acid 2.8 mM, 10 minutes
  Titre of MuLV after inactivating of MuLV with 60 mM caprylic acid: 0
MuLV virus; 60 mM, pH 6.2, free caprylic acid 2.8 mM, 30 minutes
  Titre of MuLV after inactivating of MuLV with 60 mM caprylic acid: 0
MuLV virus; 60 mM, pH 6.3, free caprylic acid 2.2 mM, 5 minutes
  Titre of MuLV after inactivating of MuLV with 60 mM caprylic acid: 0
MuLV virus; 60 mM, pH 6.3, free caprylic acid 2.2 mM, 10 minutes
  Titre of MuLV after inactivating of MuLV with 60 mM caprylic acid: 0
MuLV virus; 60 mM, pH 6.3, free caprylic acid 2.2 mM, 30 minutes
  Titre of MuLV after inactivating of MuLV with 60 mM caprylic acid: 0
MuLV virus; caprylic acid concentrations of about 2 mM, after 30 minutes
  inactivation of MuLV: partial inactivation
MuLV virus; free caprylic acid below 1 mM
  inactivation of MuLV: no inactivation was observed
MuLV virus; pH range 5.0 to 6.0, free caprylic acid at least about 4 mM, after 5 minutes
  inactivation of MuLV: complete inactivation
